{"source": "patent US4963565A", "about": "“In vivo treatment of mycobacterial infections with 6-cyclo octylamino-5,8-quinoline quinone” (priority 1986, dated 1990)", "key": {"[1]": {"tested_on": "M. intracellulare", "assay": "In vivo chemotherapeutic activity against M. intracellulare in the Beige mouse model (Example II)", "design": "species or system M. intracellulare (host: Beige mice)", "details": "10 mg/kg daily orally; 1, 2 and 4 weeks (P 0.05), FIG. 2"}, "[2]": {"tested_on": "M. tuberculosis", "details": "Gangadharam et al.; cited from earlier work"}, "[3]": {"tested_on": "M. tuberculosis H37 Rv", "assay": "In vitro activity against growing culture of M. tuberculosis in Middlebrook 7H9 broth", "details": "2 mcg/ml, FIG. 7"}, "[4]": {"tested_on": "C57Bl/6 and Beige mice", "assay": "Chronic toxicity in C57Bl/6 and Beige mice", "format": "in vivo", "details": "40 mg/kg/day, and intraperitoneal doses over 30 mg/kg, more than 60 days", "procedure": "Studies were performed to obtain toxicity data. […] Extrapolating, this corresponds to an LD50 of approximately 40 gr for a 70 kg subject. For chronic toxicity studies both C57Bl/6 and Beige mice were administered doses of 40 mg/kg/day, and intraperitoneal doses over 30 mg/kg for more than 60 days."}, "[5]": {"tested_on": "M. intracellulare 571-8", "assay": "In vivo effectiveness against chronic M. intracellulare infections in C57Bl/6 mice (Examples IV and V)", "design": "species or system M. intracellulare (host: C57Bl/6 mice)"}, "[6]": {"tested_on": "macrophages", "assay": "Cytotoxicity to macrophages (Table 3 footnote)", "format": "cell-based, human", "details": "Sample I; 200 NG/ML (cell printed *)", "excerpt": "(§1) Blood from a healthy volunteer was drawn and monocytes were removed and cultured to the macrophage stage. This required about 7 days. The macrophages were then exposed to M. leprae bacilli obtained from biopsy specimens of leprosy patients. One sample was exposed to CQQ, while other samples were exposed to DDS (diaminodiphenyl sulphone), the standard antileprosy drug, or rifampin, at various concentrations. Macrophages were exposed to radiolabelled tritium (^3 H) labeled thymidine, and its uptake was measured using a liquid scintillation counter. A control model of M. leprae exposed macrophages, which was not treated was used as well. The uptake of thymidine is a measure of antimycobacterial activity."}, "[7]": {"tested_on": "Mycobacterium leprae", "assay": "Inhibitory activity against Mycobacterium leprae in the macrophage model (3H thymidine uptake)", "format": "cell-based, M. leprae (in human monocyte derived macrophages)", "design": "Inhibition of 3H thymidine uptake: dose or concentration left out as unconfirmed", "excerpt": "The effect of CQQ on Mycobacterium leprae, the causative agent for leprosy, was studied using monocyte derived macrophages obtained from human volunteers.\nas §1"}}, "data": [{"molecule": "O=C1C(NC2CCCCCCC2)=CC(=O)c2ncccc21", "note": "[CQQ, 6-cyclo octylamino-5,8-quinoline quinone]", "values": [{"measurement": "Antimycobacterial activity, CFU counts from spleen and lungs vs controls", "setting": "[1]", "value": "considerable antimycobactgerial activity with statistically significant differences"}, {"measurement": "In vitro effectiveness against M. tuberculosis", "setting": "[2]", "value": "effective against M. intracellulare and M. tuberculosis in vitro"}, {"measurement": "Inhibitory activity against tubercle bacilli", "setting": "[3]", "value": "remarkable inhibitory activity"}, {"measurement": "Visible toxic manifestation or death", "setting": "[4]", "value": "No visible toxic manifestation or death"}, {"measurement": "Duration of statistically significant difference vs control", "setting": "[5]; Example IV, 10 mg/kg (P 0.05)", "value": "up to 3 weeks"}, {"measurement": "Reduction in CFU counts in spleen and lungs vs untreated control", "setting": "[5]; Example IV, 10 mg/kg, followed for 28 days, FIG. 5", "value": "considerable reduction in CFU counts both in spleen and lungs"}, {"measurement": "In vivo antimycobacterial activity in the chronic infection", "setting": "[5]; Example V, FIG. 6", "value": "considerable in vivo antimycobacterial activity"}, {"measurement": "Cytotoxic to macrophages", "setting": "[6]", "value": "CYTOTOXIC TO MACROPHAGES"}, {"measurement": "Counts per minute (3H thymidine uptake)", "setting": "[7]; Sample I, 5 NG/ML", "value": 2.4, "unit": "COUNTS PER MINUTE"}, {"measurement": "Counts per minute (3H thymidine uptake)", "setting": "[7]; Sample I, 25 NG/ML", "value": 93, "unit": "COUNTS PER MINUTE"}, {"measurement": "Counts per minute (3H thymidine uptake)", "setting": "[7]; Sample I, 50 NG/ML", "value": 93, "unit": "COUNTS PER MINUTE"}, {"measurement": "Counts per minute (3H thymidine uptake)", "setting": "[7]; Sample I, 100 NG/ML", "value": 84, "unit": "COUNTS PER MINUTE"}, {"measurement": "Counts per minute (3H thymidine uptake)", "setting": "[7]; Sample I, CQQ 10 NG/ML", "value": 2.3, "unit": "COUNTS PER MINUTE"}, {"measurement": "Counts per minute (3H thymidine uptake)", "setting": "[7]; Sample II, 5 NG/ML", "value": 6, "unit": "COUNTS PER MINUTE"}, {"measurement": "Counts per minute (3H thymidine uptake)", "setting": "[7]; Sample II, 25 NG/ML", "value": 69, "unit": "COUNTS PER MINUTE"}, {"measurement": "Counts per minute (3H thymidine uptake)", "setting": "[7]; Sample II, 50 NG/ML", "value": 76, "unit": "COUNTS PER MINUTE"}, {"measurement": "Counts per minute (3H thymidine uptake)", "setting": "[7]; Sample II, 100 NG/ML", "value": 76, "unit": "COUNTS PER MINUTE"}, {"measurement": "Counts per minute (3H thymidine uptake)", "setting": "[7]; Sample II, 200 NG/ML", "value": 91, "unit": "COUNTS PER MINUTE"}, {"measurement": "Counts per minute (3H thymidine uptake)", "setting": "[7]; Sample II, CQQ 10 NG/ML", "value": 13, "unit": "COUNTS PER MINUTE"}, {"measurement": "Counts per minute (3H thymidine uptake)", "setting": "[7]; Sample III, 5 NG/ML", "value": 2, "unit": "COUNTS PER MINUTE"}, {"measurement": "Counts per minute (3H thymidine uptake)", "setting": "[7]; Sample III, 25 NG/ML", "value": 37, "unit": "COUNTS PER MINUTE"}, {"measurement": "Counts per minute (3H thymidine uptake)", "setting": "[7]; Sample III, CQQ 10 NG/ML", "value": 2, "unit": "COUNTS PER MINUTE"}, {"measurement": "Activity with another strain of M. leprae", "setting": "[7]; another strain", "value": "even greater activity"}, {"measurement": "Antileprosy activity", "setting": "[7]; conclusion from Table 3", "value": "considerable antileprosy activity"}, {"measurement": "Inhibition of 3H thymidine uptake", "setting": "[7]; two strains of M. leprae", "value": "significant inhibition"}]}]}
